Results as given in PMC2781551, “Antibody Complementarity-Determining Regions (CDRs): A Bridge between Adaptive and Innate Immunity” (PLoS ONE, 2009).

Key:
[1] = tested on: C. albicans strain (CA-6); assay: In vitro candidacidal CFU assay; assay type: cell-based, Candida albicans; details: 100 µg/ml, CA-6 cells
Method: The origin and characteristics of the highly virulent C. albicans strain (CA-6) used in this study have been previously described. The culture was maintained by serial passages on Sabouraud agar (BioMérieux, Lyon, France). The yeast cells were harvested by suspending a single colony in saline, washed twice, counted in a hemocytometer and adjusted to the desired concentration.
The in vitro activity against CA-6 cells of mAb MoA synthetic CDRs at the concentration of 100 µg/ml was evaluated by a conventional Colony Forming Unit (CFU) assay as described elsewhere.

murine splenocytes = assay: Cytokine production by unfractionated spleen cells (ELISA); assay type: cell-based, mouse (Balb/c); details: 10 µg/ml, 18 h, 10×10^6 cells/ml, ELISA of supernatants, data not shown
Method: (§1) Unfractionated spleen cells (10×10^6/ml), recovered from Balb/c mice, were cultured in the presence or absence of mAb HuA and mAb MoA CDR peptides, LPS or NC (all 10 µg/ml) for 18 h in RPMI-1640 plus 10% FCS (complete medium) at 37°C and 5% CO2. After incubation, the supernatants were collected and tested for TNF-α and IL-6 levels by specific ELISA assays (Biosource, Camarillo, CA, USA). In selected experiments, PM (5×10^6/ml) were cultured as above described. After incubation, the supernatants were collected and tested for TNF-α and IL-6 levels by specific ELISA assays (Biosource). PM (5×10^6/ml) were cultured in the presence or absence of mouse VHCDR3, LPS, NC or SP (all at 10 µg/ml) for 1 or 18 h in complete medium at 37°C and 5% CO2. PM (5×10^6/ml) were cultured as above described in the presence or absence of wortmannin (4 nM) or SB203580 (0,2 µM) (both from Sigma). After incubation, the supernatants were collected and tested for TNF-α level by specific ELISA assays (Biosource). In selected experiments, PM (5×10^6/ml) were cultured in the presence or absence of VHCDR3, LPS, NC, SP and nine VHCDR3 alanine-substituted derivatives (all at 10 µg/ml) for 18 h in complete medium at 37°C and 5% CO2. After incubation, the supernatants were collected and tested for TNF-α level by specific ELISA assays (Biosource). PMN (5×10^6/ml) were cultured in the presence or absence of mAb MoA CDR peptides, LPS or NC (all 10 µg/ml) for 18 h in complete medium at 37°C and 5% CO2. After incubation, the supernatants were collected and tested for TNF-α and IL-6 levels by specific ELISA assays (Biosource). Cytokine titers were calculated by reference to standard curves, constructed with known amounts of recombinant cytokines.

[2] = tested on: peritoneal murine macrophages (PM); assay: Cytokine production by peritoneal macrophages (ELISA); assay type: cell-based, mouse (Balb/c); details: for TNF-α production by PM / IL-6 production by PM: 18 h, P<0.05 vs untreated; for reduction of TNF-α production induced by LPS / reduction of TNF-α production induced by VHCDR3: PM 5×10^6/ml, wortmannin 4 nM or SB203580 0,2 µM; for reduction of TNF-α production induced by LPS: LPS 10 µg/ml; for reduction of TNF-α production induced by VHCDR3: VHCDR3 10 µg/ml
Method: DC and CD4^+ T cells were separated from spleens of inbred Balb/c mice using N-418 or L3T4 mAb-conjugated MicroBeads (Miltenyi Biotec, Bergisch Gladbach, Germany), and magnetic separation was performed according to the manufacturer's instruction. Peritoneal murine neutrophils (PMN) and macrophages (PM) were collected 18 h or 4 days, respectively, after the intraperitoneal injection of 1 ml endotoxin-free 10% thioglycolate solution (Difco).
as §1

Akt = assay: Phospho-Akt Western blotting in PM; assay type: cell-based, mouse (Balb/c); details: PM 3×10^6/ml, 10 µg/ml, 1 h, Western blot, with respect to NC and SP, n = 5
Method: (§2) After incubation, cells were washed and lysated with Mammalian protein extraction reagent (M-PER) in the presence of protease and phosphatase inhibitors (all from Pierce, Rockford, IL). Protein concentration was determined with a BCA protein Assay Reagent kit (Pierce). The lysates (30 µg of each sample) were separated by sodium dodecyl-sulfate-10% PAGE, transferred to a nitrocellulose membrane (Pierce) for 1 h at 100 V in a blotting system (Bio-Rad) for Western Blot analysis, and the membranes were incubated over-night with rabbit polyclonal Abs to phospho-Akt (pAkt; dilution 1/1000), phospho-IkBα (pIkBα; dilution 1/1000) (all from Cell Signalling Technology, Beverly, MA) and rabbit polyclonal Ab to TLR-4 (dilution 1/200) (Santa Cruz Biotechnology Inc.) in blocking buffer. […] Immunoreactive bands were visualized and quantified by Chemidoc Instrument (Bio-Rad). In particular, a quantitative analysis of the region of interest drawn around the outer edge of the band, was performed based on the guidelines for the use of the Chemidoc Instrument (Bio-Rad). […] All the parallelograms that form a band create one unique three-dimensional solid structure on which the volume is calculated. […]

IkBα = assay: Phospho-IkBα Western blotting in PM; assay type: cell-based, mouse (Balb/c); details: 1 h, n = 5
Method: as §2

TNF-α gene = TNF-α gene expression in PM (quantitative RT-PCR); assay type: cell-based, mouse (Balb/c); details: PM 1×10^6/ml, 10 µg/ml, qPCR normalized against GADPH, n = 5
Method: (§3) After incubation, cells were lysed using Trizol reagent (Invitrogen, Carlsbad, CA), and total RNA was extracted. The reverse transcriptase (RT) reaction was performed using Moloney murine leukaemia virus reverse transcriptase (M-MLV RT), as described in the manufacturer's instructions (Invitrogen).
(§4) TNF-α, TLR-4, and GADPH clones for use as standards were prepared by PCR from cDNA derived from PM and cloned into p-Drive vector (Qiagen, S.p.A., Milano, Italy). These were verified by sequence analysis. Plasmid DNA was diluted 10-fold and the starting concentration for the dilution series was 10^8 gene copies/µl.
(§5) For each target gene, primers were selected using the Beacon Designer software (Bio-Rad, Hercules, CA). Real-time RT-PCR (quantitative RT-PCR) was performed in 96-well PCR plates using the SYBR green (all from BioRad). For real-time PCR reaction 100 ng/µl of reverse-transcribed RNA was used and cDNA was normalized according to GADPH as an internal NC gene. Amplification conditions were the same for TNF-α, TLR-4 and GADPH mRNAs assayed: 3 min at 95°C, 40 cycles of 10 s at 95°C and 30 s at 62°C. For the Melt Curve, the amplification condition was: 1 min at 50°C and 90 cycles of 10 s at 50°C. The experiments were performed using the iCycler IQ Multicolor Real-time PCR Detection System (BioRad).

TLR-4 gene = TLR-4 gene expression in PM (quantitative RT-PCR); assay type: cell-based, mouse (Balb/c); details: PM 1×10^6/ml, 10 µg/ml, qPCR normalized against GADPH, n = 5
Method: as §3, §4, §5

TLR-4 [3] = assay: TLR-4 protein Western blotting in PM; assay type: cell-based, mouse (Balb/c); details: PM 3×10^6/ml, 10 µg/ml, 1 and 3 h, Western blot, n = 5
Method: as §2

TLR-4 [4] = assay: TLR-4 expression in PM (flow cytometry); assay type: cell-based, mouse (Balb/c); details: PM 1×10^6/ml, 10 µg/ml, 1 h, RPE-labelled mAb to TLR-4, FACScan, representative experiment out of five
From the text: Data are reported as percentage of positive cells. […] Data are expressed as percentage of positive cells.

C. albicans (CA-6) = assay: Therapeutic activity against systemic candidiasis in mice; assay type: in vivo, Balb/c mice; details: 200 µg i.p. 4 h before, 100 µg 1 and 2 days after infection
Method: Female, 8–10 weeks old, inbred Balb/c mice were obtained from Harlan Nossan Laboratories (Milan, Italy) and housed at the Animal Facilities of the University of Perugia, Perugia, Italy. Procedures involving animals and their care were conducted in conformity with national and international laws and policies.
Groups of 7 Balb/c mice were infected intravenously with 5×10^5 or 7.5×10^5 CA-6 cells suspended in 0.5 ml saline for evaluation of fungal clearance or mice survival, respectively.
Infected animals were given 200 µg of mouse VLCDR3 or VHCDR3 peptides intraperitoneally 4 h before infection, and 100 µg 1 and 2 days after infection for a total of 400 µg/mouse. Untreated animals served as a NC. Quantification of fungal growth at 5, 7, and 12 days after infection was assessed by plating serial dilutions of kidney homogenates onto Sabouraud agar. Animal survival was monitored for 30 days after infection.

PM = assay: Uptake of biotin-labelled peptide by PM (flow cytometry); details: 10 µg/ml, 37°C, FACScan, n = 7
Method: DC, PM, PMN and CD4^+ T cells (all 1×10^6/ml) were incubated for 1 h with biotin-labelled mouse VHCDR3 (b-VHCDR3) or biotin-labelled NC (b-NC) (both 10 µg/ml) in complete medium at 37°C and 5% CO2. After incubation, cells were fixed with 4% formalin for 5 min at room temperature (RT), permeabilized with 0.1% saponin, washed with 0.1% saponin and incubated for 20 min on ice with FITC-labelled mAb to biotin (1 µl/test; Mouse IgG1 isotype) (Miltenyi Biotec), washed with 0.1% saponin and analyzed by FACScan flow cytometry (BD Biosciences). Data are reported as percentage of positive cells. In selected experiments, PM (1×10^6/ml) were incubated for different times with b-VHCDR3 or b-NC (both 10 µg/ml) in complete medium at 37°C and 5% CO2. After incubation, cells were fixed, permeabilized and washed as above and incubated for 20 min on ice with FITC-labelled mAb to biotin, washed with 0.1% saponin and analyzed by FACScan flow cytometry (BD Biosciences). Data are reported as mean fluorescence intensity (MFI) or percentage of positive cells. […] NC staining of cells with irrelevant Abs were used to obtain background fluorescence values.
In selected experiments, PM were incubated for 1 h with b-VHCDR3 or b-NC (both 10 µg/ml) in complete medium at 37°C and 5% CO2. After incubation, cells were reacted with FITC-labelled mAb to biotin in the presence of Evans' Blue (StemCell Technologies Inc., Milan, Italy) as a counterstain, and subsequently examined under fluorescent light microscopy (Carl Zeiss, Jena, Germany).

[5] = tested on: C. albicans strain (CA-6); details: previously proven; ref [8], [16]; cited from earlier work
From the text: The CDRs of human mAb HuA (IgM) and mouse mAb MoA (IgM) specific for the difucosyl human blood group A substance, were chemically synthesized on the basis of the previously described sequences of VH and VL chain [21]. An irrelevant synthetic decapeptide (MSTAVSKCAT), previously proven to be devoid of either candidacidal or immunomodulatory activity, was used as a negative control (NC), [16]. In selected experiments, a scramble peptide (SP) (YYWLQGGFAN) and nine VHCDR3 alanine-substituted derivatives were used for control of specificity and evalua ...

[6] = 10 µg/ml, 5×10^6 cells/ml, n = 7

Row | Molecule | IL-6 production by splenocytes (murine splenocytes) | TNF-α production by splenocytes (murine splenocytes) | TNF-α production by PM ([2]; 10 µg/ml, 5×10^6 cells/ml) | IL-6 production by PM [2, 6] | TNF-α gene expression, 1 and 6 h (TNF-α gene) | TLR-4 gene expression, 1 h (TLR-4 gene) | Percentage of TLR-4 positive cells (TLR-4 [4]) | reduction of TNF-α production induced by LPS [2] | reduction of TNF-α production induced by VHCDR3 [2] | other results
1 | GQYGNLWFAY [VHCDR3] | increased production | increased production | significant up-regulation | significant up-regulation | significant increase | significant increase | significant increase |  |  | candidacidal effect in vitro [1]: ineffective; TNF-α production by PM after 1 h ([2]; 10 µg/ml, 1 h, 5×10^6 cells/ml, n = 7): significant increase; Akt phosphorylation (pAkt normalized against Akt) (Akt): increased activation of pAkt; IkBα phosphorylation (pIkBα normalized against IkBα) (IkBα; PM 3×10^6/ml, 10 µg/ml, Western blot, compared to NC): increased activation of pIkBα; TNF-α gene expression, 18 h (TNF-α gene; 18 h): rapid decline of gene expression; TLR-4 gene expression, 6 h (TLR-4 gene; 6 h): declined; TLR-4 protein (normalized against actin) (TLR-4 [3]): significant up-regulation; Percentage of TLR-4 positive cells (TLR-4 [4]; listed as VH CDR3): 38.1; CFU recovery from kidneys (C. albicans (CA-6); 5×10^5 CA-6 cells i.v., 5, 7 and 12 days after infection, n = 7): impressive decrease; survival of infected mice (C. albicans (CA-6); 7.5×10^5 CA-6 cells i.v., 30 days, vs untreated or VLCDR3-treated, Log rank P<0.05, n = 7): significant increase in survival; kinetics of uptake by PM (MFI and percentage of positive cells), 6 and 18 h (PM; 6 and 18 h incubation): persisted; kinetics of uptake by PM (MFI and percentage of positive cells), 1 h (PM; 1 h incubation): high level; kinetics of uptake by PM (MFI and percentage of positive cells), 72 h (PM; 72 h incubation): negligible levels
2 | MSTAVSKCAT [NC, irrelevant synthetic decapeptide used as a negative control, reference compound] | did not affect cytokine production | did not affect cytokine production | did not stimulate cytokine production | did not stimulate cytokine production | inability | No activation | 24.1 |  |  | candidacidal or immunomodulatory activity [5]: devoid
3 | COC[C@H]1OC(=O)c2coc3c2[C@@]1(C)C1=C(C3=O)[C@@H]2CCC(=O)[C@@]2(C)C[C@H]1OC(C)=O [wortmannin] |  |  |  |  |  |  |  | 39% | 28% | effect on VHCDR3-induced IkBα phosphorylation (IkBα; PM, wortmannin 4 nM with VHCDR3 10 µg/ml): significantly reduced
4 | QQRSNWPRS [mAb HuA VLCDR3, synthetic VLCDR3 of human mAb HuA] | significant up-regulation |  |  | significant up-regulation |  |  |  |  |  | 
5 | C[S+]([O-])c1ccc(-c2nc(-c3ccncc3)c(-c3ccc(F)cc3)[nH]2)cc1 (centres unmarked) [SB203580] |  |  |  |  |  |  |  | 28% | 21% | 
